According to the NIST ThermoML archive (doi:10.1021/je300134c):

Test: xn = mol fraction of the nth substance listed
Conditions: 101 kPa, Liquid; for speed of sound: Sing-around technique in a fixed-path interferometer; for mass density: Vibrating tube method

CCCC[n+]1ccn(CC)c1.O=S(=O)([O-])C(F)(F)F + O
Conditions	mass density [kg/m3]	speed of sound [m/s]
278.15 K, x1 = 0.04992	1120.13	1524
278.15 K, x1 = 0.1001	1171.15	1521.3
278.15 K, x1 = 0.1498	1199.88	1514.7
278.15 K, x1 = 0.1998	1218.01	1505.6
278.15 K, x1 = 0.3013	1239.57	1484.6
278.15 K, x1 = 0.4012	1251.73	1467.7
278.15 K, x1 = 0.496	1259.25	1455.4
278.15 K, x1 = 0.6017	1265.19	1444.9
278.15 K, x1 = 0.7007	1269.28	1436.2
278.15 K, x1 = 0.8551	1274.04	1428
278.15 K, x1 = 0.9006	1275.29	1424.8
278.15 K, x1 = 1	1278.02	1420.6
288.15 K, x1 = 0.04992	1114.86	1527.1
288.15 K, x1 = 0.1001	1164.38	1513.5
288.15 K, x1 = 0.1498	1192.37	1500.2
288.15 K, x1 = 0.1998	1210.13	1487.1
288.15 K, x1 = 0.3013	1231.45	1462.7
288.15 K, x1 = 0.4012	1243.63	1444.7
288.15 K, x1 = 0.496	1251.19	1432
288.15 K, x1 = 0.6017	1257.22	1421
288.15 K, x1 = 0.7007	1261.36	1412.4
288.15 K, x1 = 0.8551	1266.2	1403.7
288.15 K, x1 = 0.9006	1267.39	1400.7
288.15 K, x1 = 1	1269.97	1396.3
298.15 K, x1 = 0.04992	1109.08	1526.5
298.15 K, x1 = 0.1001	1157.27	1503
298.15 K, x1 = 0.1498	1184.63	1484.1
298.15 K, x1 = 0.1998	1202.11	1467.7
298.15 K, x1 = 0.3013	1223.27	1440.8
298.15 K, x1 = 0.4012	1235.48	1422
298.15 K, x1 = 0.496	1243.13	1409
298.15 K, x1 = 0.6017	1249.23	1397.9
298.15 K, x1 = 0.7007	1253.44	1389.3
298.15 K, x1 = 0.8551	1258.37	1380.5
298.15 K, x1 = 0.9006	1259.57	1377.5
298.15 K, x1 = 1	1262.21	1373.1
308.15 K, x1 = 0.04992	1102.81	1522.5
308.15 K, x1 = 0.1001	1149.85	1490.2
308.15 K, x1 = 0.1498	1176.7	1466.4
308.15 K, x1 = 0.1998	1193.95	1447.6
308.15 K, x1 = 0.3013	1215.04	1418.7
308.15 K, x1 = 0.4012	1227.32	1399.3
308.15 K, x1 = 0.496	1235.04	1386.3
308.15 K, x1 = 0.6017	1241.24	1375.1
308.15 K, x1 = 0.7007	1245.51	1366.7
308.15 K, x1 = 0.8551	1250.54	1357.8
308.15 K, x1 = 0.9006	1251.76	1355
308.15 K, x1 = 1	1254.44	1350.6
318.15 K, x1 = 0.04992	1096.1	1515.2
318.15 K, x1 = 0.1001	1142.14	1475.1
318.15 K, x1 = 0.1498	1168.57	1447.5
318.15 K, x1 = 0.1998	1185.67	1426.7
318.15 K, x1 = 0.3013	1206.74	1396.3
318.15 K, x1 = 0.4012	1219.13	1376.7
318.15 K, x1 = 0.496	1226.96	1363.7
318.15 K, x1 = 0.6017	1233.26	1352.5
318.15 K, x1 = 0.7007	1237.61	1344.3
318.15 K, x1 = 0.8551	1242.74	1335.7
318.15 K, x1 = 0.9006	1243.97	1333
318.15 K, x1 = 1	1246.71	1328.6
328.15 K, x1 = 0.04992	1088.96	1504.9
328.15 K, x1 = 0.1001	1134.15	1458.2
328.15 K, x1 = 0.1498	1160.26	1427.4
328.15 K, x1 = 0.1998	1177.26	1405
328.15 K, x1 = 0.3013	1198.39	1373.8
328.15 K, x1 = 0.4012	1210.91	1354.1
328.15 K, x1 = 0.496	1218.87	1341.2
328.15 K, x1 = 0.6017	1225.3	1330.3
328.15 K, x1 = 0.7007	1229.73	1322.3
328.15 K, x1 = 0.8551	1234.98	1314
328.15 K, x1 = 0.9006	1236.23	1311.3
328.15 K, x1 = 1	1239.01	1307.1
338.15 K, x1 = 0.04992	1081.43	1492
338.15 K, x1 = 0.1001	1125.92	1439.7
338.15 K, x1 = 0.1498	1151.76	1406.4
338.15 K, x1 = 0.1998	1168.74	1382.8
338.15 K, x1 = 0.3013	1189.99	1351.2
338.15 K, x1 = 0.4012	1202.68	1331.6
338.15 K, x1 = 0.496	1210.79	1319
338.15 K, x1 = 0.6017	1217.37	1308.4
338.15 K, x1 = 0.7007	1221.89	1300.7
338.15 K, x1 = 0.8551	1227.27	1292.7
338.15 K, x1 = 0.9006	1228.53	1290.2
338.15 K, x1 = 1	1231.35	1286.1
